Data as given in patent US20160331754A1, “THERAPIES FOR TREATING CANCERS” (GILEAD SCIENCES, INC., priority 2014, published 2016).

Tests used:
p-AKT Ser473 = assay: Western blot, TPO-activated AKT phosphorylation in UT-7/TPO cells; type: cell-based; settings: then TPO
Description: In addition, Compound B was examined for the effects on the PI3K signaling pathway by determining the levels of AKT and S6 phosphorylation with or without TPO activation. Two cell lines, BaF3/MPL and UT-7/TPO sensitive or responsive to TPO activation were used. The cells were starved (i.e. growing on medium having less FBS) in […] FBS/RPMI for two hours before treated with 0.1, 1.0, or 2.0 μM of Compound B or vehicle (0.1% DMSO in RPMI) for 2 hours at 37° C. To examine the TPO-activated phosphorylation, the cells were then treated or activated with 50 ng/mL of human recombinant TPO (Peprotech) for 10 minutes at 37° C. The TPO activation or treatment may reflect the conditions in diseased cells as the PI3K pathway is activated by TPO in myelofibrosis. After treating with compound and/or TPO, the cells were collected, lysed by lysis buffer (Cell Signaling), separated by SDS-PAGE, and analyzed by the Western blot using antibodies specific to p-AKT Ser473 or pS6 Ser235/236 (Cell Signaling). The phosphorylation levels in treated cells were calculated and compared to those of untreated cells (i.e. vehicle as negative control).

WIL2-S target cells = assay: Antibody-dependent cellular phagocytosis (ADCP) with polarized macrophages; type: cell-based; settings: Homo sapiens, Macrophage, 256 nM
Description: Next, antibody-dependent cellular phagocytosis (ADCP) was characterized. The CD14^+ negatively selected monocytes (Astarte Biologics, Bothell, Wash.) were cultured in Gibco AIM V Medium CTS (Life Technologies, Grand Island, N.Y.) with macrophage colony-stimulating factor (PeproTech, Rocky Hill, N.J.) at 60 ng/mL. At Day 6 or 7, monocyte-derived macrophages were washed and plated with polarizing cytokines. For differentiation to M1 macrophages, cells were plated with interferon-γ 100 ng/mL (R&D Systems, Minneapolis, Minn.) and lipopolysaccharides from E. coli 055:B5 100 ng/mL (Sigma-Aldrich, St Louis, Mo.) for 24 hours. For differentiation to M2c macrophages, cells were plated in interleukin-10 10 ng/mL (R&D Systems) for 48 hours. Compound B titration was added to the plated macrophages and incubated at 37° C. for about 1 hour. […] Cells were then stained with pooled FITC anti-CD14 (Becton, Dickinson and Company, Franklin Lakes, N.J.) and FITC anti-CD11b (eBioscience, San Diego, Calif.), harvested from 96-well plates with Accutase (Merck Millipore, Darmstadt, Germany) and vigorous pipetting, and analyzed on an LSR II flow cytometer (Becton, Dickinson and Company). Double-positive cells (FITC+CellTracker Red) represented phagocytized target cells and the levels of phagocytosis were calculated as % double-positive cells/% double positive cells+% target cells alone×100. […]

CC[C@H](Nc1ncnc2[nH]cnc12)c1nc2cccc(F)c2c(=O)n1-c1ccccc1 [Compound B, (S)-2-(1-((9H-purin-6-yl)amino)propyl)-5-fluoro-3-phenylquinazolin-4(3H)-one]
reduced p-AKT levels vs vehicle (p-AKT Ser473; 0.1 μM 2 h): 11%
reduced p-AKT levels vs vehicle (p-AKT Ser473; 1.0 μM 2 h): 44%
reduced p-AKT levels vs vehicle (p-AKT Ser473; 2.0 μM 2 h): 55%
inhibition at 0.256 µM (WIL2-S target cells): < 30%
